Measurements as given in patent US11905282B1, “1-cyclopropyl-7-(4-((5-(2,4-dichlorobenzylideneamino)-2-thioxo-1,3,4-thiadiazol-3(2H)-yl)methyl)piperazin-1-yl)-6-fluoro-4-oxo-1,4-dihydroquinoline-3-carboxylic acid as an anti-inflammatory compound” (KING FAISAL UNIVERSITY, priority 2023, dated 2024).
Read-outs that look alike come from different tables or passages of the source.

Biological target: Bovine Serum Albumin (Bos taurus, UniProt P02769)
Experiment: Bovine Serum Albumin Assay (BSA), inhibition of heat-induced protein denaturation (in vitro anti-inflammatory activity)
Type: biochemical
Description: Bovine Serum Albumin Assay (BSA) In vitro-inflammatory activities of the tested samples were determined using a modified method of the BSA assay reported by Williams et al. BSA solution (0.4%, w/v) was prepared in Tris Buffered Saline. The pH was adjusted to 6.4 with glacial acetic acid. Different dilutions of 20, 40, 60, 80, and 100 μg/mL of 1-cyclopropyl-6-fluoro-4-oxo-7-(4-((5-oxo-2-phenyl-4-(quinolin-2-ylmethylene)-4,5-dihydro-1H-imidazol-1-yl)methyl)piperazin-1-yl)-1,4-dihydroquinoline-3-carboxylic acid in the stock solutions were added to test tubes containing 1 mL of 0.4%, w/v BSA buffer solution. Both negative (solvent) and positive (aspirin) controls were assayed in a similar manner. The solutions were then heated in a water bath at 72° C. for 10 minutes and cooled for 20 minutes under laboratory conditions. The turbidity of the solutions (level of protein precipitation) was measured at 660 nm in Spectrophotometer (V-770 UV-Visible/NIR Spectrophotometer). The percentage inhibition of precipitation (protein denaturation) was determined relative to the negative control using the following equation: [formula] [formula]

[1] = read-out: percentage inhibition of precipitation (protein denaturation)

Chain of Bovine Serum Albumin (P02769 25-607): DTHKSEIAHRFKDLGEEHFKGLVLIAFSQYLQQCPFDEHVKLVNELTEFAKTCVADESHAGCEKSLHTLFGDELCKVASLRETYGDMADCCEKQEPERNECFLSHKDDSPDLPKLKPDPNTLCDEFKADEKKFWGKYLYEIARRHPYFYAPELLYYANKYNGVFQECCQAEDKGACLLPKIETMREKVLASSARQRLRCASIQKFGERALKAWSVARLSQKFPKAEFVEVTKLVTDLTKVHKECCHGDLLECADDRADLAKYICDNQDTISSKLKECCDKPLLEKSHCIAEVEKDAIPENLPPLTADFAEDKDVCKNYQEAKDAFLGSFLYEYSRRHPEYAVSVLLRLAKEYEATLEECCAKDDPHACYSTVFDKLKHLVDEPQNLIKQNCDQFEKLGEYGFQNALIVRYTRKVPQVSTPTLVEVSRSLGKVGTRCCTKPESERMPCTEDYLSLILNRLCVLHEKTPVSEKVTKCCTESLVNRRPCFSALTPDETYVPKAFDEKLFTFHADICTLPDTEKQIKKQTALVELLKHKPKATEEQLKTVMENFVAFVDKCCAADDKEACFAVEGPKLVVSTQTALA

| in vitro anti-inflammatory effect (BSA assay, result in words) | inhibition at 20 µg/mL [1] [%] | inhibition at 40 µg/mL [1] [%] | inhibition at 60 µg/mL [1] [%] | inhibition at 80 µg/mL [1] [%] | inhibition at 100 µg/mL [1] [%] | inhibition at 100 µg/mL (concentration 100 μg/ml, 72° C. 10 minutes, turbidity at 660 nm, read-out: percentage inhibition of precipitation (protein denaturation)) [%] | Structure (SMILES) |
| --- | --- | --- | --- | --- | --- | --- | --- |
| considerable anti-inflammatory effect | 68.2 | 75.7 | 79.1 | 83.8 | 87.6 | – | O=C(O)c1cn(C2CC2)c2cc(N3CCN(Cn4nc(/N=C/c5ccc(Cl)cc5Cl)sc4=S)CC3)c(F)cc2c1=O [Present compound, 1-cyclopropyl-7-(4-((5-(2,4-dichlorobenzylideneamino)-2-thioxo-1,3,4-thiadiazol-3(2H)-yl)methyl)piperazin-1-yl)-6-fluoro-4-oxo-1,4-dihydroquinoline-3-carboxylic acid] |
| – | – | – | – | – | – | 90.7 | CC(=O)Oc1ccccc1C(=O)O [P.C, aspirin, reference compound] |
